# Results: patent publication US11661439B2, “Peptide hydrogels and use thereof” (The United States of America, as represented by the …, priority 2017, dated 2023)
# Non-standard residues stand in square brackets, D forms with d. Residues, ends and D or L forms follow the SMILES beside them.
# Columns and labels:
# [1] = system: RFP-HDFs; test: Hydrogel-based in vivo cell delivery with RFP fluorescence imaging; parameters: species or system athymic nude mice
# Description: In vivo studies. Six- to eight-week-old non-tumor bearing female athymic nude mice were used for this experiment (n=3). Animal care was in accordance with the procedures outlined in the Guide for Care and Use of Laboratory Animals (National Research Council, 1996; National Academy Press, Washington, D.C.) and animal protocols were approved by the Frederick National Laboratory for Cancer Research (FNLCR) Institutional Animal Care and Use Committee.
# Hydrogel-based in vivo cell transplantation. RFP-HDFs were encapsulated in 0.5 wt % AcVES3-RGDV at 10^7 cells mL^−1 as described in the 3D cell culture section. After gelation, the cell-peptide gel (10^6 cells per 100 μL) was injected into the left dorsal region of the mouse and as a control, RFP-HDF suspension in serum-free DMEM (10^6 cells per 100 μL) was injected into the right dorsal region of the mouse.
# In vivo fluorescence imaging. Multispectral fluorescence imaging was performed daily (Monday-Friday) for 42 days using a Maestro Flex imager (PerkinElmer). Briefly, mice were anesthetized for 3-4 minutes in an induction chamber with 3% isoflurane with filtered air (0.2 μm filter) used as a carrier at a flow rate of 1 liter per minute. After isoflurane induction, the mice were transferred to an imaging chamber, where isoflurane was reduced to 2% and O2 was used as a carrier. The imaging platform was kept at 37° C. to maintain the mouse's internal temperature. Image acquisition (Maestro software, ver. 2.10.0) of the RFP fluorescence signal utilized a 533±26 nm excitation filter (placed in front of the 300 W xenon excitation source), a 580 nm long-pass filter (placed in front of the CCD) and implementing a multispectral imaging acquisition of 550-720 nm range, 10 nm increment, auto exposure (typically 0.5-5 seconds per emission wavelength), with a 2×2 pixel binning, resulting in a stack of images (image cube). RFP signal was distinguished from the tissue autofluorescence by employing vendor specified unmixing protocol. Quantitative analysis was performed by drawing a standard circular region of interest (ROI) over the injection site of the unmixed RFP component image. The total RFP signal (scaled counts second^−1) within each ROI was measured and plotted as a function of time.
# Collection of RFP-HDFs from the tissue graft. After in vivo imaging on day 42, mice were euthanized using CO2 and ex vivo images (Maestro Software) were acquired by exposing the cell-peptide gel injection site. Image acquisition and processing were performed with the same parameters as performed for in vivo imaging as stated above. Utilizing the unmixed RFP image to guide resecting the RFP-positive tissue, the RFP positive cells were resected and then homogenized by squeezing them through a cell strainer. The collected cells were then cultured on a tissue culture plate with FBS-supplemented DMEM for 10 days and observed using an EVOS FL Auto Cell Imaging System.
# [2] = system: human dermal fibroblasts (HDFs); test: 2D cell culture of HDFs on gel surfaces; type: cell-based; settings: for cell adhesion of HDFs on gel surface: Essential 8 Medium or serum-free DMEM
# Description: 2D cell culture on peptide gels. Peptides were initially dissolved in water at 1 wt % on ice and mixed with an equal volume of ice-cold 2×HEPES buffer (50 mM HEPES, 300 mM NaCl, pH 7.4). The peptide solution (50 μL per well) was transferred to a non-tissue culture treated 96-well plates and incubated at 37° C. to initiate gelation. After 1 hour, HDFs (2×10^4 cells per 200 μL, per well) in serum-free DMEM, 10% FBS supplemented DMEM, or Essential 8 Medium (Thermo Fisher Scientific) were seeded on the peptide gels and cultured for 4 days. Bovine type I collagen gels (0.3 wt %, 50 μL per well) were prepared in 96-well plates following manufacturer's instructions.
# Cell viability assay. Cell viability was evaluated by live and dead cell staining after 2D and 3D cell culture. Serum-free DMEM containing 1 μM calcein-AM and 2 μM ethidium homodimer-1 was added to the cells (200 μL per well for 2D culture and 500 μL each to the top and bottom of the gels for 3D culture). After incubation at 37° C. for 30 min, live and dead cells were visualized using EVOS FL Auto Cell Imaging System (Thermo Fisher Scientific). For the pseudo-colored composite image of varying heights of encapsulated cells, images of the live-stained cells were captured every 5 μm of height. Then Z-stack images for each 100 μm were flattened using the EVOS software, and the flattened images were pseudo-colored and merged using ImageJ.
# Cell proliferation assay. A cell proliferation assay was performed using Cell Counting Kit-8 (CCK-8, Dojindo Molecular Technologies) for 2D and 3D cell culture. Serum-free DMEM containing 10% CCK-8 was added to the gels (200 μL per well for 2D culture; 500 μL to the top of the gels for 3D culture) and incubated for 2 hours at 37° C. Subsequently, media were transferred to 96-well plates (150 μL per well) and their absorbance measured at 450 nm relative to control viabilities from day 0 for 2D cell culture and day 1 for 3D cell culture. Experiments were performed in triplicate.
# Cytoskeleton staining. For 2D cell culture, the peptide and collagen gels (70 μL) were prepared as described above on the glass bottom of 35 mm dishes (7 mm glass diameter, MatTek). HDFs in Essential 8 Medium (1.5×10^5 cells per 3 mL) were added to the dishes and incubated at 37° C. for 24 hours. Cells were fixed and permeabilized with 4% paraformaldehyde and 0.1% Triton X-100 in PBS for 15 min, and then blocked with 1% BSA in PBS. Cells were incubated with anti-vinculin antibody (hVIN-1, Sigma) for 1 hour at room temperature. Then, a goat anti-mouse IgG (H+L) cross-adsorbed secondary antibody, Rhodamine Red-X (2 μg mL^−1, Thermo Fisher Scientific), Alexa Fluor 488 phalloidin (5 units mL^−1, Thermo Fisher Scientific), and Hoechst 33342 (5 μg mL^−1, Invitrogen) in PBS were added to the dishes and incubated for 1 hour at room temperature. After washing, cells were visualized using an EVOS FL Auto Cell Imaging System.
smiles,measurement,setting,value
CC(=O)N[C@H](C(=O)N[C@@H](CCC(=O)O)C(=O)N[C@H](C(=O)N[C@@H](CO)C(=O)N[C@H](C(=O)N[C@@H](CO)C(=O)N[C@H](C(=O)N[C@@H](CCC(=O)O)C(=O)N[C@H](C(=O)N1CCC[C@@H]1C(=O)N1CCC[C@H]1C(=O)N[C@H](C(=O)N[C@@H](CCC(=O)O)C(=O)N[C@H](C(=O)N[C@@H](CO)C(=O)N[C@H](C(=O)N[C@@H](CCC(=O)O)C(=O)N[C@H](C(=O)N[C@@H](CCC(=O)O)C(=O)N[C@H](C(=O)NCC(=O)NCC(=O)NCC(=O)NCC(=O)N[C@@H](CCCNC(=N)N)C(=O)NCC(=O)N[C@@H](CC(=O)O)C(=O)N[C@H](C(N)=O)C(C)C)C(C)C)C(C)C)C(C)C)C(C)C)[C@@H](C)O)C(C)C)C(C)C)C(C)C)C(C)C)C(C)C [AcVES3-RGDV] (Ac-VEVSVSVEV[dP]PTEVSVEVEVGGGGRGDV-NH2),retention of cells after initial injection,[1]; 10^6 RFP-HDFs per 100 μL gel,over 40 days
same,slowing of dissipation of injected cells versus cell suspension control,"[1]; 10^6 RFP-HDFs per 100 μL, dorsal injection, from slopes of the lines",~6 fold
same,RFP signal still detected at injection site,[1]; day 42,approximately 2%
same,inflammation around the injection site,"[1]; day 42, dissected subcutaneous tissue",no apparent inflammation
same,"localization, retention and engraftment of delivered cells","[1]; mouse, in vivo",dramatically enhance localization and retention of the delivered cells and also support engraftment
same,"cell proliferation of HDFs, 2D culture","[2]; Essential 8 Medium, up to day 4",proliferated to a similar degree as cells on collagen gels
same,cytoskeleton organization and focal adhesions,"[2]; day 1, Essential 8 Medium",promoted organization of actin stress fibers and focal contacts
same,cell adhesion of HDFs on gel surface,[2]; day 1,strongly attached and spread
same,cell adhesion of HDFs on gel surface,[2]; day 4,remained adherent and viable
